Experimental findings from patent US6387905B2, “Compounds useful for inhibition of farnesyl protein transferase” (Schering Corporation, priority 1996, dated 2002) are described below.

The structures appear in SMILES notation. Like-named read-outs stand apart in the source and are kept apart here. Some results are limits rather than exact numbers.

The target in series [1] is farnesyl protein transferase (FPT), H-ras (Homo sapiens, UniProt P49354+P49356). In words: FPT IC50 (H-ras), inhibition of farnesyl protein transferase, in vitro enzyme assay. The class given is biochemical.
Series [2] concerns the target farnesyl protein transferase (FPT), K-ras (Homo sapiens, UniProt P49354+P49356). In words: FPT IC50 (K-ras), inhibition of farnesyl protein transferase, in vitro enzyme assay. In kind it is biochemical. The procedure: FPT IC50 (inhibition of farnesyl protein transferase, in vitro enzyme assay) and COS Cell IC50 (Cell-Based Assay) were determined following the assay procedures described in WO 95/10516, published Apr. 20, 1995. GGPT IC50 (inhibition of geranylgeranyl protein transferase, in vitro enzyme assay), Cell Mat Assay, and anti-tumor activity (in vivo anti-tumor studies) could be determined by the assay procedures described in WO 95/10516. The disclosure of WO 95/10516 is incorporated herein by reference thereto.

Series [3] concerns Human tumor cells. In words: Soft Agar Assay (anchorage-independent growth). As to conditions: Table 5, read-out: Soft Agar IC50. In kind it is cell-based.
For series [4], the system named is COS Cell. Briefly: COS Cell IC50 (Cell-Based Assay). The settings on record: COS.
Setting [5] is: Table 3, H-ras, read-out: FPT IC50 (nM) (H-ras).
Setting [6] is: Table 3, read-out: COS Cell IC50.
Where [7] appears, read: Table 5, read-out: Cos Cell IC50.

Regarding `CN(C)CCCC(=O)N1CCC(CC(=O)N2CCC(C3c4ncc(Br)cc4CCc4cc(Cl)cc(Br)c43)CC2)CC1` (single isomer, unassigned; (+)) [Example 19], the melting point fell in the range of 69 to 71 °C. In addition, the IC50 in series [1] (setting [5]) was 35 nM.

`CN(C)CCC(=O)N1CCC(CC(=O)N2CCC(C3c4ncc(Br)cc4CCc4cc(Cl)cc(Br)c43)CC2)CC1` (single isomer, unassigned; (+)) [Example 20] displayed a melting point of 82 to 84 °C. Besides, the IC50 in series [1] (setting [5]) is 5.8 nM. Further, in series [2], the IC50 was determined as 19.8 nM. The IC50 in series [3] (Homo sapiens) worked out at 190 nM. Also, in series [4] (setting [6]), the IC50 was 10 nM.

Take `CN(C)CC(=O)N1CCC(CC(=O)N2CCC(C3c4ncc(Br)cc4CCc4cc(Cl)cc(Br)c43)CC2)CC1` (single isomer, unassigned; (+)) [Example 21]: the IC50 in series [1] (setting [5]) was found to be 2.5 nM; in series [2], 19.4 nM; in series [3] (Homo sapiens), 160 nM; in series [3] (listed as 12.1), 90 nM; in series [4] (setting [6]), 10 nM.

In turn, `O=C(CCN1CCCCC1)N1CCC(CC(=O)N2CCC(C3c4ncc(Br)cc4CCc4cc(Cl)cc(Br)c43)CC2)CC1` (single isomer, unassigned; (+)) [Example 22] had a melting point of 127 to 128 °C. Further, in series [1] (setting [5]), the 50% inhibitory concentration (IC50) was below 2.6 nM. Further, in series [4] (setting [6]), the IC50 stood at 43 nM.

Molecule `COC(=O)CCCC(=O)N1CCC(CC(=O)N2CCC(C3c4ncc(Br)cc4CCc4cc(Cl)cc(Br)c43)CC2)CC1` (single isomer, unassigned; (+)) [Example 24] returned a melting point of 101 to 102 °C. In addition, the IC50 in series [1] (setting [5]) worked out at 4.8 nM. Moreover, the half-inhibitory concentration (IC50) in series [4] (setting [6]) is 10 nM.

In the case of `COC(=O)CCC(=O)N1CCC(CC(=O)N2CCC(C3c4ncc(Br)cc4CCc4cc(Cl)cc(Br)c43)CC2)CC1` (single isomer, unassigned; (+)) [Example 25], the melting point lay in the range of 114 to 115 °C. In addition, the IC50 in series [1] (setting [5]) is 5.1 nM. The IC50 in series [3] (Homo sapiens) was 250 nM. Also, the IC50 in series [4] (setting [6]) was 39 nM.

`CCOC(=O)CC(=O)N1CCC(CC(=O)N2CCC(C3c4ncc(Br)cc4CCc4cc(Cl)cc(Br)c43)CC2)CC1` (single isomer, unassigned; (+)) [Example 26] returned a melting point of 77 to 78 °C. Also, the IC50 in series [1] (setting [5]) was below 2 nM. Moreover, the half-maximal inhibitory concentration (IC50) in series [4] (setting [6]) turned out to be 125 nM.

Regarding `C[C@@H](N)C(=O)N1CCC(CC(=O)N2CCC([C@H]3c4ncc(Br)cc4CCc4cc(Cl)cc(Br)c43)CC2)CC1` [Example 6], the IC50 in series [1] (H-ras, read-out: FPT IC50 (H-ras)) came to 8.1 nM; in series [2], 31 nM; in series [3] (Homo sapiens) it was 200 nM; in series [4] (setting [6]), 39 nM; in series [4] (setting [7]) it was 39 nM.

Regarding `CC(C)(C)OC(=O)N[C@@H](Cc1c[nH]cn1)C(=O)N1CCC(CC(=O)N2CCC([C@H]3c4ncc(Br)cc4CCc4cc(Cl)cc(Br)c43)CC2)CC1` [Example 8], the IC50 in series [1] (setting [5]) was 7.4 nM; in series [2], 41 nM; in series [4] (setting [6]) it was 125 nM; in series [4] (setting [7]) it was 125 nM.

Regarding `CC(C)(C)OC(=O)N1CCC[C@H]1C(=O)N1CCC(CC(=O)N2CCC([C@H]3c4ncc(Br)cc4CCc4cc(Cl)cc(Br)c43)CC2)CC1` [Example 9], the values for the IC50 in series [1] (setting [5]), in series [2] and in series [4] (setting [6]) were 11.6 nM, 34.8 nM and 700 nM, respectively.

`N[C@@H](Cc1ccccc1)C(=O)N1CCC(CC(=O)N2CCC([C@H]3c4ncc(Br)cc4CCc4cc(Cl)cc(Br)c43)CC2)CC1` [Example 10]: the IC50 in series [1] (setting [5]) came to 8.3 nM; in series [2], 71.2 nM; in series [4] (setting [6]) it was 300 nM.

Consider `O=C(CC1CCN(C(=O)[C@@H]2CCCN2)CC1)N1CCC([C@H]2c3ncc(Br)cc3CCc3cc(Cl)cc(Br)c32)CC1` [Example 12], for which the half-inhibitory concentration (IC50) in series [1] (setting [5]) was determined as 4.4 nM; in series [2], 35 nM; in series [3] (Homo sapiens) it was 250 nM; in series [4] (setting [6]) it was 55 nM.

Molecule `CCOC(=O)CC(=O)N1CCC(CC(=O)N2CCC([C@H]3c4ncc(Br)cc4CCc4cc(Cl)cc(Br)c43)CC2)CC1` [Example 30] had a melting point of 77.2 to 78.1 °C. In series [1] (Table 4, read-out: FPT IC50), the IC50 stood at 2.8 nM.

In general, IC50 refers to the concentration at which inhibition is half-maximal. As usually defined, the melting point is the temperature, or range, at which the solid turns liquid.
